Among the data in a melting point compilation (Tetko et al.; mined from patent text by program, amines drawn as free bases though some values may be those of a salt) are melting point values, retold here.

Structures are written as SMILES.

In general, melting point refers to the temperature, or range, at which the solid turns liquid. `CC(C)(CO)NC(=O)c1nn(-c2c(F)cc(F)cc2F)c2c1C1CCC2C1` (stereo unspecified): the melting point lay in the range of 122 to 125 °C.
The value for `CC(=O)N1CC(CCN2CCC(c3ccccc3)CC2)c2ccccc21` (stereo unspecified) was 92 to 93 °C; that for `O=c1c(C2=Nc3ccccc3S(=O)(=O)N2)c(O)c2ccccc2n1CCCCO` was 238 to 240 °C; that for `CCC(=O)c1c(-c2cc(C)c(O)c(C)c2)c(C)n2c1-c1cc(OC)c(OC)cc1CC2` was 188 to 190 °C.
Regarding `CCC(CC)Oc1ccc(-n2cc(C(=O)O)cn2)cc1C#N`, the melting point is 142 to 144 °C.
In the case of `Cc1ccc(-c2nnc3cc(-c4ccccc4)c(OCc4ncn(C)n4)nn23)cc1` it was 219 to 220 °C; in that of `CN(C)CCNc1ccc2c3c(nn2C)-c2ccncc2C(=O)c13`, 212 to 216 °C.
In the case of `CCCc1nn(-c2ccc(C(F)(F)F)cn2)cc1CCCOc1cc(CC(=O)O)cc(OC)c1` it was 139 to 140 °C; in that of `CC(CC(=O)NC(=O)OC(C)(C)C)Nc1ccccc1` (stereo unspecified), 117 to 118 °C.
The value for `COc1ccc(-c2[nH]nc3c2C(=O)c2c(NC(=O)Nc4ccccc4)cccc2-3)cc1` was more than 300 °C.
`N#Cc1c[nH]cc1-c1ccc(Cl)cc1C(=O)c1ccccc1Cl` showed a melting point of 182 to 184 °C.
The compound `CCCc1nn(-c2ccc(C(F)(F)F)cn2)cc1CCCOc1nn(-c2ccccc2)cc1CC(=O)O` registered a melting point of 123 to 124 °C.
In turn, `C[C@H](Nc1nc(Nc2cccc(NS(C)(=O)=O)c2)nc2[nH]cnc12)c1ccccc1` registered a melting point of 136 to 139 °C.
The value for `Cc1cc(-c2cc(C(F)F)n3nccc3n2)ccc1Cl` was 107 °C; that for `COC(Cn1ncc(-c2ccc(S(C)(=O)=O)cc2)c(-c2ccc(F)cc2)c1=O)c1ccccc1` (stereo unspecified) was 135 to 137 °C; that for `O=S(=O)(NCC1CCN(C[C@H]2COc3ccc(Cl)cc3O2)CC1)c1ccc(F)cc1F` was 119 to 121 °C.
In the case of `CC(NC(=O)C(O)c1cc(F)cc(F)c1)C(=O)NC1N=C(c2ccccc2)c2ccccc2N(C)C1=O` (stereo unspecified) it was 128 °C.
The value for `NC1=NS(=O)N=C1NCCCOc1cccc2c(N3CCOCC3)nccc12` (stereo unspecified) was 222 to 224 °C; that for `C=CCC(CC1CC2CCN1CC2)(c1ccccc1)c1ccccc1` (stereo unspecified) was 95.5 to 98 °C.
`CCOC(=O)Nc1cc(N)ccc1F`: the melting point was in the range of 88 to 89 °C.
The value for `COC(=O)C=C(C)c1ccc(CCC(C)(C)NCC(O)c2ccccc2)cc1` (stereo unspecified) was 98 to 102 °C; that for `COc1cc(OC)c2c(=O)cc(C(C)(C)C(N)=O)oc2c1` was 217 to 219 °C; that for `Nc1ccc(C(=O)N2CCOCC2)cc1OCc1ccc(-c2ccccc2)c(-c2nnnn2C(c2ccccc2)(c2ccccc2)c2ccccc2)c1` was 95 to 105 °C.
In the case of `CCN(CC)CCOCCC1CCCCN1C(=O)N1c2ccccc2C(=O)Nc2cccnc21` (stereo unspecified) it was 134 to 136 °C; in that of `Cc1ccc(S(=O)(=O)Nc2ccc(CCCC(=O)O)nc2)cc1`, 154 to 155 °C; in that of `CCC1(Br)Cc2cc(OCC(=O)O)c(C)c(C)c2C1=O` (stereo unspecified), 136 to 139 °C.
The value for `CCc1cc2c3c(ccc2[nH]1)OCC(CN1CC=C(c2c[nH]c4ccc(F)cc24)CC1)O3` (stereo unspecified) was 81 to 82 °C; that for `CN(C)c1ccc2c3c(cccc13)C(=O)c1ccccc1-2` was 125 to 127 °C; that for `CCOC(=O)c1ccc2c(c1)N=C(C)c1ccc(OC)cc1O2` was 117 to 118 °C.
Compound `COc1cc2c(cc1O)CCN(C(=O)c1ccc(OC)c(OC)c1)C2=O` displayed a melting point of 199 to 200 °C.
The value for `CN1CCN(CC(=O)N2c3ccccc3C(=S)Nc3cccnc32)CC1` was 240 to 241 °C.
In the case of `CC(C)Oc1cc([N+](=O)[O-])ccc1-n1cccc1` it was 59 to 61 °C.
In the case of `O=C1Cc2cccc(C(=O)c3ccc(Cl)cc3)c2N1` it was 186 °C; in that of `Cc1oc(-c2ccccc2)nc1COc1ccc(COc2ncccc2CC#N)cn1`, 110 to 111 °C.
In turn, `CCc1ccc(Cc2c(O)nn(C(C)C)c2C)cc1` yielded a melting point of 164 to 169 °C.
The value for `CN1C2=NCCN2C(=O)c2cccnc21` was 168 to 171 °C; that for `CCOC(=O)N1CCC(c2nc(-c3ccc(-c4ccccc4)cc3)c[nH]2)CC1` was 71 to 72 °C.
In the case of `Cc1oc(-c2ccccc2)nc1C(=O)NN` it was 144 to 146 °C; in that of `Cc1nc2cccc(OCC(C)(C)NC(=O)C3CCOCC3)c2c(N)c1C(=O)O`, 170 to 173 °C.
In the case of `CC1CCc2c(N3CCN(Cc4ccc(N)cc4)CC3)c(F)cc3c(=O)c(C(=O)O)cn1c23` (stereo unspecified) it was 216 to 218 °C.
`CCOC(=O)c1c(NC2CC(C)(C)NC(C)(C)C2)cc(C)nc1C` registered a melting point of 89 to 90 °C.
The value for `CN1CC(=O)Nc2ccc(-c3cccc([N+](=O)[O-])c3)cc21` was 237 to 243 °C; that for `CSc1c(CC(=O)O)ccc2c3ccccc3n(Cc3ccc(Cl)cc3)c12` was 176 to 178 °C.
In the case of `Cc1oc(-c2ccccc2)nc1COc1ccc2c(c1)CCC(C=C1SC(=O)NC1=O)=C2` it was 271 to 272 °C.
`O=C(NCc1ccccc1)c1ccccc1-c1ccccc1CNS(=O)(=O)c1cccc([N+](=O)[O-])c1`: the melting point was determined as 175 °C.
The compound `CCOC(=O)C(=Cc1ccc(-c2nc3ccc(O)cc3o2)cc1)C(=O)OCC` registered a melting point of 153 to 155 °C.
`O=C(O)Cc1ccc2c(c1)Cc1ccccc1-2` showed a melting point of 184 to 186 °C.
In the case of `CC(C)(C)OC(=O)N1CCC(c2ccc(N3C[C@H](COS(C)(=O)=O)OC3=O)cc2F)CC1` it was 163 to 165 °C; in that of `CC(C)NCC(O)COc1ccc2cn[nH]c(=O)c2c1` (stereo unspecified), 232 to 235 °C; in that of `COc1ccc(N2CCN(c3c(C)c(C)c4c(c3C)C(O)(c3ccc(OC)cc3)C(C)(C)O4)CC2)cc1` (stereo unspecified), 157 to 159 °C.
The value for `CCCCCCCCCCCCCCCCCCOc1ccc(OCCCOc2ccc(OCc3ccccc3)cc2)c(C(=O)O)c1` was 92 to 95 °C; that for `COC(=O)c1ccc(C#CCc2ccc3c(c2)C(C)(C)CCC3(C)C)cc1O` was 75 to 77 °C.
In the case of `O=C(NCC(=O)N1[C@@H](c2ccccc2)CC[C@H]1c1ccccc1)Nc1cccc(C(=O)O)c1` it was 255 °C; in that of `Cc1nc2ncnn2c2c1CCN2C1CCCCCCC1`, 188 to 190 °C.
`CC(C(=O)O)n1nnc2ccc(Oc3nn(C)c(C(F)(F)F)c3Cl)cc21` (stereo unspecified): the melting point is 209 to 211 °C.
The value for `COc1ccc(-c2cnc3[nH]c(=O)n(CC4CCCCC4)c3n2)cn1` was 235 to 237 °C; that for `CC1(C)CN=C(Cc2ccc(Cl)cc2)NC1` was 130 to 132 °C.
In the case of `Nc1cc(N2CCc3ccccc3C2)ccn1` it was 160 to 161 °C; in that of `CC1(C)OC(=O)Nc2ccc(-c3ccc(N)nc3)cc21`, 257 to 259 °C; in that of `NCCc1c(Br)[nH]c2ccc3c(=O)[nH]ccc3c12`, 252 °C.
The value for `Cc1nc(C(=O)NCCO[N+](=O)[O-])c(C)s1` was 114 to 116 °C; that for `CCCCCCNC(=O)Nc1cccc2c1C1(COc3cc4c(cc31)OCCO4)C(=O)N2C` (stereo unspecified) was 154 to 155 °C; that for `NC(=NO)c1ccc(NC(=O)CC(=O)N2CCC(OCC(=O)O)CC2)cc1` was 133 to 135 °C.
`CN1CC(CCN2CCN(c3ccccn3)CC2)OC1=O` (stereo unspecified) registered a melting point of 108 to 109 °C.
In the case of `CC(C)(C)C(NC(=O)c1ccc(Cl)cc1)Nc1c(Nc2ccccn2)c(=O)c1=O` (stereo unspecified) it was 246 to 248 °C.
The value for `CCCCCCCCCC(=O)Nc1ccc(S(=O)(=O)Nc2nncs2)cc1` was 151 to 152 °C; that for `O=C(O)c1ccc2oc3c(c(=O)c2c1)CCCC3` was 253 to 255 °C.
In the case of `COCCCn1ccc2c1CC(c1ccccc1Cl)C1C(=O)NC(=O)C21` (stereo unspecified) it was 75 to 90 °C; in that of `COC(=O)C1(CC#N)C(=O)N(C)C(=O)c2ccccc21` (stereo unspecified), 120 to 122 °C; in that of `O=C1c2ccccc2C(c2ccccc2)N1C1CCN(CCC(c2ccccc2)c2ccccc2)CC1` (stereo unspecified), 65 to 69 °C.
As for `CCC(=O)OC(c1nc2c(C(F)(F)F)cccc2c(O)c1C(=O)Nc1nccs1)C(C)C` (stereo unspecified), the melting point turned out to be 222 °C.
The value for `CC(C)(C)OC(=O)Nc1ccc(-c2cccc(F)c2)cc1NC(=O)CC(=O)c1cccc(C#N)c1` was 148 to 150 °C; that for `CCCCCCc1ccnc(-c2ccc(C(N)=O)cc2)n1` was 232 to 233 °C; that for `CCCc1nc2c(N)nc3ccccc3c2n1CCC(OCC)OCC` was 148 to 150 °C.
In the case of `CCOC(=O)c1c(-c2ccccc2Cl)c2cc(Cl)ccc2n(C)c1=O` it was 139 to 140 °C; in that of `O=CN1CCC(C(c2ccccc2)c2ccccc2)CC1`, 172 to 174 °C.
In the case of `COc1nc(-c2ccccc2)c(-c2ccc(=O)n(C(C)C)n2)nc1C#N` it was 170 to 172 °C.
Consider `Nc1nc2ccc(C(O)C(CNC(=O)c3ccccc3)N3CCC(Cc4ccccc4)CC3)cc2s1` (stereo unspecified), for which the melting point lay within 160 to 162 °C.
`COC(=O)[C@@](C#N)(CCN(C)C)C(c1ccccc1OC)c1cccc2ccccc12` (single isomer, unassigned) showed a melting point of 142 to 144 °C.
In turn, `COc1cc(CN2CCN(C(=O)C3=Cc4ccc(OC(=O)c5ccccc5)cc4CC3)CC2)cc(OC)c1OC` showed a melting point of 117 to 119 °C.
The value for `CCOC(=O)C(C)c1ccc2oc(C(=O)c3ccc(Cl)cc3)nc2c1` (stereo unspecified) was 66 to 67 °C.
The value for `COC(=O)c1nc(Cl)cc(N)c1OC` was 78 to 79 °C; that for `OC1CSC(Oc2cccc(-c3ncccc3Cl)c2)C(O)C1O` (stereo unspecified) was 217 °C; that for `CC(C(=O)O)c1c(C(=O)c2ccccc2)[nH]c2cc(Cl)ccc12` (stereo unspecified) was 193 to 196 °C.
The value for `C=CC(=O)Nc1ccc2ncnc(Nc3ccc(Oc4ccccc4)cc3)c2c1` was 185 to 191 °C; that for `CC(=O)NCc1ccc(CN2CCN(c3ccccc3)CC2)cc1N` was 148 to 149 °C.
